Assay results: US11149036B2, “3-(1H-pyrazol-4-yl)pyridine allosteric modulators of the M4 muscarinic acetylcholine receptor” (Merck Sharp & Dohme Corp., priority 2017, dated 2021)

Target: T1, human M4 muscarinic acetylcholine receptor (Homo sapiens, UniProt P08173)
T1 construct: expressed in transfected cells; host or cells: CHO-K1
T1 sequence (P08173 1-479): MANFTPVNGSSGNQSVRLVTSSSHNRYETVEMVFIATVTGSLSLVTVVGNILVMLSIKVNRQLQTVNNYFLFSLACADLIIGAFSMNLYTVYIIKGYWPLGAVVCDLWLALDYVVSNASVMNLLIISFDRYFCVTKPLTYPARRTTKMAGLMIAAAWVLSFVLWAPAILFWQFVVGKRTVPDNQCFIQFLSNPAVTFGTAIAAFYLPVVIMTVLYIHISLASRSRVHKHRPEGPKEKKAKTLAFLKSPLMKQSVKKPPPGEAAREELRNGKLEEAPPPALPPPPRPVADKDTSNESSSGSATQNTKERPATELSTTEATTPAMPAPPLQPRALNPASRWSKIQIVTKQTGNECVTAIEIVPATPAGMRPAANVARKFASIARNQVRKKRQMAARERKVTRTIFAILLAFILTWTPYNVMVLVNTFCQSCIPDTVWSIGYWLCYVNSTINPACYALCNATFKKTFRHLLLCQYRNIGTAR
Test: human FLIPR-based M4 PAM assay (CHO-K1 cells with human M4 receptor and Gaqi5, calcium dye fluorescence)
Format: cell-based
Conditions: inflection point (IP) of dose response curve, acetylcholine added at 20% of maximum response, read-out: M4 FLIPPR Hu IP
Protocol: (§1) In a typical experiment the M4 muscarinic acetylcholine receptor modulating activity of the compounds of the present invention was determined in accordance with the following experimental method. CHO-K1 cells stably transfected with human M4 receptor and chimeric G-protein Gaqi5 (Coward P, et al., Analytical Biochemistry, 270:242-248 (1999)) are thawed from liquid N2 storage, resuspended in growth medium, plated in black, clear bottom 384 well plates, and incubated 16-20 hours at 37° C., 5% CO2. On the day of assay, growth medium is removed, the cells are washed 2 times with wash buffer, and cells are incubated in dye loading buffer at 37° C., 5% CO2 for ˜1 hour. Following dye loading the cell plates are placed in a FLIPR Tetra instrument and while monitoring dye fluorescence (excitation 470-495 […]), 10 uL of test substance at increasing concentrations is added, and fluorescence values are recorded for 4 min. Next, 10 uL of acetylcholine is added (final concentration calculated so as to achieve 20% of the maximum acetycholine response), and the fluorescence reading is continued for 3.5 min. In some cases, a third addition of acetylcholine (final concentration calculated to achieve 70% of the maximal acetylcholine response) is performed. The resulting dose response curves are fit to a 4 parameter logistic equation and the final result is determined as the inflection point (IP) of the curve
as §1, with “CHO-K1” for “In a typical experiment the M4 muscarinic acetylcholine receptor modulating activity of the compounds of the present invention was determined in accordance with the following experimental method. CHO-K1”, “Gaqi5” for “Gaqi5 (Coward P, et al., Analytical Biochemistry, 270:242-248 (1999))”, “performed.” for “performed. The resulting dose response curves are fit to a 4 parameter logistic equation and the final result is determined as the inflection point (IP) of the curve”

| Structure (SMILES) | EC50 [nM] |
| --- | --- |
| Cc1cc(-c2cnn(CC3(F)CCCC3)c2)c(-c2cnc3c(c2)C(=O)N(CC2CC2)C3)nc1Cl [Example 116, 3-(6-chloro-3-(1-((1-fluorocyclopentyl)methyl)-1H-pyrazol-4-yl)-5-methylpyridin-2-yl)-6-(cyclopropylmethyl)-6,7-dihydro-5H-pyrrolo [3,4-b]pyridin-5-one] | 61 |
| Fc1cnc(-c2ccn3cc(C(F)(F)F)nc3c2)c(-c2cnn(CC3(F)CCCC3)c2)c1 [Example 98, 7-(5-fluoro-3-(1-((1-fluorocyclopentyl)methyl)-1H-pyrazol-4-yl)pyridin-2-yl)-2-(trifluoromethyl)imidazo [1,2-a]pyridine] | 82 |
| Cn1cnc2cc(-c3nc(C(F)F)ccc3-c3cnn(CC4(F)CCCC4)c3)cnc21 [Example 108, 6-(6-(difluoromethyl)-3-(1-((1-fluorocyclopentyl)methyl)-1H-pyrazol-4-yl)pyridin-2-yl)-3-methyl-3H-imidazo[4,5-b] pyridine] | 86 |
| Cc1nc2cc(-c3ncc(F)cc3-c3cnn(CC4(F)CCCC4)c3)ccc2n1C [Example 99, 5-(5-fluoro-3-(1-((1-fluorocyclopentyl)methyl)-1H-pyrazol-4-yl)pyridin-2-yl)-1,2-dimethyl-1H-benzo[d]imidazole] | 83 |
| CN1Cc2ncc(-c3nc(C#N)ccc3-c3cnn(CC4(F)CCCC4)c3)cc2C1=O [Example 41, 5-(1-((1-fluorocyclopentyl)methyl)-1H-pyrazol-4-yl)-6-(6-methyl-5-oxo-6,7-dihydro-5H-pyrrolo[3,4-b]pyridin-3-yl)picolinonitrile] | 45 |
| Cn1nc2ccc(-c3nc(C#N)ccc3-c3cnn(CC4(C)CCCC4)c3)cc2n1 [Example 125, 6-(2-methyl-2H-benzo[d][1,2,3]triazol-5-yl)-5-(1-((1-methylcyclopentyl)methyl)-1H-pyrazol-4-yl)picolinonitrile] | 76 |
| N#Cc1ccc(-c2cnn(CC3(F)CCCC3)c2)c(-c2ccn3nc(CO)nc3c2)n1 [Example 66, 5-(1-((1-fluorocyclopentyl)methyl)-1H-pyrazol-4-yl)-6-(2-(hydroxymethyl)-[1,2,4]triazolo[1,5-a]pyridin-7-yl)picolinonitrile] | 89 |
| N#Cc1ccc(-c2cnn(CC3C[C@@H](F)[C@H](F)C3)c2)c(-c2ccc3cccnc3c2)n1 [Example 84, 5-(1-(((3R,4R)-3,4-difluorocyclopentyl)methyl)-1H-pyrazol-4-yl)-6-(quinolin-7-yl)picolinonitrile] | 33 |
| Cn1cc2ccc(-c3nc(C#N)c(F)cc3-c3cnn(CC4(F)CCCC4)c3)cc2n1 [Example 89, 3-fluoro-5-(1-((1-fluorocyclopentyl)methyl)-1H-pyrazol-4-yl)-6-(2-methyl-2H-indazol-6-yl) picolinonitrile] | 67 |
| N#Cc1ccc(-c2cnn(CC3(F)CCCC3)c2)c(-c2cnc3c(c2)C(=O)N(CCF)C3)n1 [Example 47, 5-(1-((1-fluorocyclopentyl)methyl)-1H-pyrazol-4-yl)-6-(6-(2-fluoroethyl)-5-oxo-6,7-dihydro-5H-pyrrolo[3,4-b]pyridin-3-yl)picolinonitrile] | 56 |
| Cc1ccc(-c2cnn(C[C@@H]3CC[C@H](F)C3)c2)c(-c2ccc3cccnc3c2)n1 (racemic) [Example 31, 7-(3-(1-(((1R,3S and 1S,3R)-3-fluorocyclopentyl)methyl)-1H-pyrazol-4-yl)-6-methylpyridin-2-yl)quinoline] | 29 |
| Cc1ccc(-c2cnn(CC3(C)CCCC3)c2)c(-c2ccc3c(c2)C(=O)OC3)n1 [Example 33, 6-(6-methyl-3-(1-((1-methylcyclopentyl)methyl)-1H-pyrazol-4-yl)pyridin-2-yl) isobenzofuran-1(3H)-one] | 35 |
| Cc1cc(-c2cnn(CC3(F)CCCC3)c2)c(-c2cnc3c(c2)ncn3C)nc1C#N [Example 142, 5-(1-((1-fluorocyclopentyl)methyl)-1H-pyrazol-4-yl)-3-methyl-6-(3-methyl-3H-imidazo[4,5-b]pyridin-6-yl)picolinonitrile] | 104 |
